These results are taken from US20140179780A1, “PHARMACEUTICAL COMPOSITION CONTAINING OLEANOLIC ACID ACETATE AS AN ACTIVE INGREDIENT FOR PREVENTING OR TREATING TLR- OR IL-6-MEDIATED DISEASES” (Korea Research Institute of Bioscience and Biotechnology, priority 2011, published 2014).

In assay [1] the test system is poly(I)-induced NFkB/AP-1 dependent SEAP activity (TLR7 signaling pathway). As to the kind of experiment: Poly(I)-induced NFkB/AP-1-dependent SEAP activity in THP1-Blue-CD14 cells. Format: cell-based, Human. As to conditions: for Effect on poly(I)-induced SEAP activity (in words): THP-1-blue cells.
Method: (§1) THP1-Blue-CD14 cells were seeded at a density of 2×10^5 cells/100 μl in a 96-well plate, and cultured at 37° C. for 3 hours.
The subject of assay [2] is poly(I:C)-induced NFkB/AP-1 dependent SEAP activity (TLR3 signaling pathway). Briefly: Poly(I:C)-induced NFkB/AP-1-dependent SEAP activity in THP1-Blue-CD14 cells. As to conditions: for Effect on poly(I:C)-induced SEAP activity (in words): THP-1-blue cells. It is filed as cell-based, Human.
Method: as §1
In assay [3] the test system is IL-6-induced STAT3 transcriptional activation. Briefly: IL-6 reactive STAT3 reporter gene (luciferase) assay in Hep3B cells. To be noted: for Effect on STAT3 luciferase activity (in words): IL-6; for Inhibition (%) of STAT3 luciferase activity / IC50: IL-6 10 ng/ml; for IC50: read-out: IC50, inhibition of IL-6-induced STAT3 luciferase activity. It is filed as cell-based. The method, then: pStat3-Luc and pcDNA3.1(+) (Clontech laboratories, Palo Alto, Calif.) were transfected into Hep3B cells (ATCC HB-8064) using lipofectamine plus (Invitrogen, Carlsbad, Calif., USA) at the same time. 2 days later, the cells were treated with hygromycin (100 μg/ml) to obtain clones stably expressing luciferase. Luciferase analysis was performed to examine whether luciferase is stably expressed in the clones.
The transfected cells in the clones obtained in Example 5-1 were cultured in DMEM (GIBCO 119950965) under serum starvation, and the samples were treated for 1 hour as follows. 10 ng/ml IL-6 (R&D system, USA) was added thereto, followed by cultivation for 12 hours.
The cultured cells were washed with PBS and 50 μl of lysis buffer (luciferase assay system, promega, USA) was added thereto, followed by stirring for 20 minutes. 30-100 μl of luciferase substrate (luciferase assay system, promega, USA) was added to measure […] using a luminometer (EG&G BERTHOLD, USA) within 5 minutes (Tables 5 and 6).
In detail, the inhibitory effects of oleanolic acid or oleanolic acid acetate on STAT3 luciferase activity was measured in the same manner as in Example 5-2, except that oleanolic acid or oleanolic acid acetate was treated as a sample in an amount of 0.1, 1, 3, 6 or 10 μM, respectively and compared with each other (FIG. 14).
Background: Reporter assays use an easily measured gene product as a stand-in for the process of interest.

For another assay, the system named is STAT3 phosphorylation. As to the kind of experiment: IL-6-induced STAT3 phosphorylation in Hep3B cells (Western blot). It is filed as cell-based. To be noted: IL-6 20 ng/ml 20 minutes, FIGS. 8a, 8b. The method, then:
Hep3B cells were seeded in a 6-well plate at a density of 5×10^5 per well, and cultured to a confluency of 80% in a culture plate. Then, the medium was replaced with serum-free medium and further cultured for 12 hours, and the samples were treated for 60 minutes as follows.
Next, 20 ng/ml of IL-6 was treated, and reacted for 20 minutes, and 40 μl of lysis buffer (pH 8, 20 mM Tris-HCl, 137 mM NaCl, 10% glycerol, 1% Triton X-100, 1 mM Na3VO4, 2 mM EDTA, 1 mM APMSF, 20 μM leupeptin, 20 μg/ml aprotonin; Sigma, USA) was used for cell lysis. Centrifugation (13000 g, 15 minutes) was performed to obtain supernatants containing proteins. Protein concentrations were quantified using a DC protein assay kit (Bio-Rad, USA), and proteins were loaded in a 4˜12% SDS polyacrylamide gel (SDS-PAGE) and electrophoresis was performed at 175 mA for 2 hours. After electrophoresis, the proteins of the gel were transferred onto a PVDF membrane (Westran S, pore size […]; Whatman, USA) at 35 V for 90 minutes. The transferred membrane was blocked with Tris-buffer (T-TBS; 50 mM Tri-HCl, pH 7.6, 150 mM NaCl, 0.2% Tween-20, 5% skim milk; Sigma, USA) at room temperature for 1 hour, and washed with T-TBS five times. The membrane was treated with polyclonal antibody of phospho-STAT3 (1:1000 dilution) as a primary antibody at 4° C. 12 hours. […]
On the technique in general: Immunoblotting shows a protein as a band on a membrane.

Assay [4] relates to osteoclast differentiation from bone marrow macrophages. As to the kind of experiment: RNAKL-induced osteoclast differentiation of bone marrow macrophages (TRAP staining). Format: cell-based, mouse. As to conditions: for Osteoclast differentiation (number and size of TRAP-positive osteoclasts): M-CSF 30 ng/ml, RNAKL 50 ng/ml, 4 days. As to the method: Femurs and tibia were removed from 5-week-old mice, and the bone cavity was washed using a 1 cc syringe to obtain bone marrow cells. The isolated bone marrow cells were cultured in α-MEM (α-minimum essential medium) containing 10% FBS, antibiotic, M-CSF (30 ng/ml) for 3 days. 3 days later, the adherent cells were used as bone marrow macrophage (BMM). The bone marrow macrophages were cultured by addition of M-CSF (30 ng/ml) and an osteoclast differentiation factor RNAKL (Receptor activator of nuclear factor kappa-B ligand) (50 ng/ml) and treated with the adzuki bean extract and oleanolic acid acetate at each concentration. 4 days later, the cultured cells were stained with a TRAP solution (Sigma Aldrich, USA), and red stained cells were determined as differentiated osteoclasts.

[5] abbreviates: Homo sapiens, read-out: Inhibition (%) of poly(I)-induced SEAP activity.
Setting [6] is: Homo sapiens, read-out: Inhibition (%) of poly(I:C)-induced SEAP activity.
Where [7] appears, read: Homo sapiens, sample 30 μM, poly(I) 50 μg/ml, read-out: Inhibition (%) of poly(I)-induced SEAP activity.
Where [8] appears, read: Homo sapiens, sample 60 μM, poly(I) 50 μg/ml, read-out: Inhibition (%) of poly(I)-induced SEAP activity.
Setting [9] is: Homo sapiens, sample 30 μM, poly(I:C) 100 μg/ml, read-out: Inhibition (%) of poly(I:C)-induced SEAP activity.
[10] abbreviates: Homo sapiens, sample 60 μM, poly(I:C) 100 μg/ml, read-out: Inhibition (%) of poly(I:C)-induced SEAP activity.

For orientation: inhibition means the change of the read-out against control, counted positive when it falls. As a reminder, the IC50 is the concentration at which inhibition is half-maximal.

Several values for one entry are separate records, joined by “and”; a condition that tells them apart may be missing. Equal entries are not always repeated. Where two headings read alike, the source gives them in different places.

Consider `OC[C@H]1O[C@@H](Oc2cc(O)c3c(c2)O[C@H](c2ccc(O)c(O)c2)[C@@H](O)C3)[C@H](O)[C@@H](O)[C@@H]1O` [Catechin-7-glucopyranoside, catechin-7-glucopyranoside, reference compound], for which the “Effect on poly(I)-induced SEAP activity (in words)” value in assay [1] is “did not affect”. In assay [2], the “Effect on poly(I:C)-induced SEAP activity (in words)” value is recorded as “did not affect”. Also, the “Inhibition (%) of poly(I:C)-induced SEAP activity” value in assay [2] (sample 30 μM, poly(I:C) 100 μg/ml) is 13.19%; in assay [2] (sample 60 μM, poly(I:C) 100 μg/ml), 11.16%. Also, the “Effect on STAT3 luciferase activity (in words)” value in assay [3] was “did not show the inhibitory effect”. Besides, the “Inhibition (%) of STAT3 luciferase activity” value in assay [3] (sample 30 μM) is listed as 8.3%; in assay [3] (sample 60 μM), 15.9%; in assay [3] (sample 100 μM), 0.4%.
With `CC(=O)O[C@H]1CC[C@@]2(C)C(CC[C@]3(C)[C@@H]2CC=C2[C@H]4CC(C)(C)CC[C@]4(C(=O)O)CC[C@]23C)C1(C)C` (stereo partly drawn) [Oleanolic acid acetate, 4aS,6aR,6aS,6bR,8aR,10S,12aR,14bS)-10-hydroxy-2,2,6a,6b,9,9,12a-heptamethyl-1,3,4,5,6,6a,7,8,8a,10,11,12,13,14b-tetradecahydropicene-4a-carboxylic acid acetate], the inhibition at 10 µM in assay [1] (setting [5]) was 2.02%; in assay [2] (setting [6]), below 0%. For the same molecule, the inhibition at 30 µM amounted to 43.9% in assay [1] (setting [5]) and 9.28% in assay [2] (setting [6]). In addition, the inhibition at 60 µM is 74.6% in assay [1] (setting [5]) and 47.2% in assay [2] (setting [6]). The figures for the inhibition at 100 µM in assay [1] (setting [5]) and in assay [2] (setting [6]) were 83% and 64.4%, respectively. Moreover, the “Effect on poly(I)-induced SEAP activity (in words)” value in assay [1] is “significantly inhibited”. Moreover, the “Effect on poly(I:C)-induced SEAP activity (in words)” value in assay [2] was “significantly inhibited”. The results for the IC50 in assay [3] (Homo sapiens) and in assay [3] were below 1000 nM and 900 nM, respectively. Moreover, the “Effect on STAT3 luciferase activity (in words)” value in assay [3] is listed as “inhibited STAT3 luciferase activity in a concentration dependent manner”. The “Inhibition (%) of STAT3 luciferase activity” value was found to be 51.2% in assay [3] (sample 1 μM); 84.3% in assay [3] (sample 3 μM); 95.1% in assay [3] (sample 6 μM); 97.2% in assay [3] (sample 10 μM); 100% in assay [3] (sample 30 μM). For the same molecule, in the assay with STAT3 phosphorylation, the “IL-6-induced STAT3 phosphorylation” value was “showed the inhibitory effects”. Besides, in assay [4] (10 μM), the Osteoclast differentiation entry is given as “remarkable effect”. Also, the “Osteoclast differentiation (number and size of TRAP-positive osteoclasts)” value in assay [4] is reported as “remarkably inhibited”; in assay [4] (listed as compound of Chemical Formula 1), “reduced in a concentration-dependent manner”.
For `O=c1c(-c2ccc(O)cc2)coc2cc(O)cc(O)c12` [Genistein, reference compound], in assay [3] (sample 100 μM), the “Inhibition (%) of STAT3 luciferase activity” value is 95.2% and 95.1% and 95.4%.
On to `O=c1cc(-c2ccc(O)c(O)c2)oc2cc(O)cc(O)c12` [Luteolin, reference compound], for which the inhibition at 30 µM in assay [1] (setting [7]) is 79.2%; in assay [2] (setting [9]), 47.7%. For the same molecule, the values for the inhibition at 60 µM in assay [1] (setting [8]) and in assay [2] (setting [10]) were 96.3% and 67.3%, respectively.
As for `CC1(C)CC[C@]2(C(=O)O)CC[C@]3(C)C(=CC[C@@H]4[C@@]5(C)CC[C@H](O)C(C)(C)[C@@H]5CC[C@]43C)[C@@H]2C1` [oleanolic acid], the “Inhibition (%) of STAT3 luciferase activity” value in assay [3] (sample 10 μM) is recorded as “approximately 14%”.
As for `C[C@@H]1O[C@@H](OC[C@H]2O[C@@H](Oc3c(-c4ccc(O)c(O)c4)oc4cc(O)cc(O)c4c3=O)[C@H](O)[C@@H](O)[C@@H]2O)[C@H](O)[C@H](O)[C@H]1O` [Rutin, rutin, reference compound], the inhibition at 30 µM in assay [1] (setting [7]) and in assay [2] (setting [9]) was below 0% throughout. In addition, the inhibition at 60 µM in assay [1] (setting [8]) and in assay [2] (setting [10]) was below 0% in each case.
With `CC[C@H](/C=C/[C@@H](C)[C@H]1CC[C@H]2[C@@H]3CC=C4C[C@@H](O)CC[C@]4(C)[C@H]3CC[C@]12C)C(C)C` [Stigmasterol, (3S,8S,9S,10R,13R,14S,17R)-17-[(E,2R,5S)-5-ethyl-6-methylhept-3-en-2-yl]-10,13-dimethyl-2,3,4,7,8,9,11,12,14,15,16,17-dodecahydro-1H-cyclopenta[a]phenanthren-3-ol], in assay [1] (setting [5]), the inhibition at 30 µM is below 0%, the inhibition at 60 µM was determined as 2.63% and the inhibition at 100 µM turned out to be 1.42%. The “Effect on poly(I)-induced SEAP activity (in words)” value in assay [1] is “did not show the inhibitory activity”. In assay [2] (setting [6]), the inhibition at 30 µM is 8.71%, the inhibition at 60 µM amounted to 4.92% and the inhibition at 100 µM is below 0%. Besides, the “Effect on poly(I:C)-induced SEAP activity (in words)” value in assay [2] is listed as “did not show the inhibitory activity”. Also, the IC50 in assay [3] (Homo sapiens) was 90000 nM. Also, the “Effect on STAT3 luciferase activity (in words)” value in assay [3] was “inhibited STAT3 luciferase activity in a concentration dependent manner”. Besides, the “Inhibition (%) of STAT3 luciferase activity” value in assay [3] (sample 60 μM) was found to be 29.4%. For the same molecule, in assay [3] (sample 100 μM), the “Inhibition (%) of STAT3 luciferase activity” value was found to be 58.4%.
